# Molecular target: Dihydroorotate dehydrogenase (quinone), mitochondrial (Homo sapiens, UniProt Q02127)
# Test: Inhibition of DHODH (unknown origin) using L-dihydroorotic acid as substrate preincubated for 30 mins followed by substrate addition measured every 10 mins in presence of decylubiquinone by DCIP dye based coupled enzyme assay
# Dihydroorotate dehydrogenase (quinone), mitochondrial, sequence (Q02127 whole entry): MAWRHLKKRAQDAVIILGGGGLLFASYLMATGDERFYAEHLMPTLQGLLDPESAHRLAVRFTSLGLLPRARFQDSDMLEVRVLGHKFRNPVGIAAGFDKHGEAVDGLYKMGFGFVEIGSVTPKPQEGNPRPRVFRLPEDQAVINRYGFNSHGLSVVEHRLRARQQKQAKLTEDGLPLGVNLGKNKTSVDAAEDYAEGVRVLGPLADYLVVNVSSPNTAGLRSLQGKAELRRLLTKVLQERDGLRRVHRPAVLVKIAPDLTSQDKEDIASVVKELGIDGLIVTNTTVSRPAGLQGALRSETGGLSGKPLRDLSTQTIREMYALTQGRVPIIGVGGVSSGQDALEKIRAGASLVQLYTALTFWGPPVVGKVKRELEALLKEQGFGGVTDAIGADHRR
row,IC50 [nM],SMILES
1,1,Cc1nc2c(C(=O)O)cc(-c3c(F)c(F)c(-c4ccc(CN5CCCC(F)(F)C5)cc4)c(F)c3F)cc2[nH]1
2,10,Cc1nc2c(C(=O)O)cc(-c3ccc(-c4ccccc4)cc3)cc2[nH]1
3,1,Cc1nc2c(C(=O)O)cc(-c3ccc(-n4c(C)ccc4C)cc3)cc2[nH]1
4,1,Cc1nc2c(C(=O)O)cc(-c3ccc(-c4ccccc4CN4CCCC4)cc3)cc2[nH]1
5,1,Cc1nc2c(C(=O)O)cc(-c3c(F)c(F)c(-c4ccccc4)c(F)c3F)cc2[nH]1
6,10,Cc1nc2c(C(=O)O)cc(-c3c(F)c(F)c(-c4ccc(CN5CCOCC5)cc4)c(F)c3F)cc2[nH]1
7,10,Cc1nc2c(C(=O)O)cc(-c3ccc(-c4ccc(O)cc4)cc3)cc2[nH]1
8,1,Cc1cccc(-c2ccc(-c3cc(C(=O)O)c4nc(C)[nH]c4c3)cc2)c1

# Source: ChEMBL document CHEMBL4725455, “Use of Dihydroorotate Dehydrogenase Inhibitors for Treatment of Autoimmune Diseases and Cancer” (ACS Med Chem Lett, 2020)
